According to patent US6589993B2, “Treating vancomycin-intermediates and multiresistant staphylococci infection with thiamphenicol or a salt thereof” (Zambon Group S.p.A., priority 2000, dated 2003):
Values after ≈ are worked out from the molar mass of the structure shown.

Experiments:
[1] = system: S. aureus Met-R multiresistant strains; assay: MIC determination (NCCLS broth microdilution), methicillin-resistant multiresistant S. aureus strains; assay type: cell-based, Staphylococcus aureus; details: for % susceptible at breakpoint: NCCLS (1999) breakpoints; for MIC: antibiotype Oxa, Ery
Method: (§1) The MICs of thiamphenicol and of other antibiotics was obtained by using the method proposed by NCCLS (National Committee for Clinical Laboratory Standards, 1999).
(§2) Various antibiotic concentrations were added to bacteria in exponental growth (final inoculum 5×10^5 […]); dilution in Mb (cation-supplemented Mueller-Hinton broth) and distribution on a microplate by using an automatic diluting machine Biomek 1000 (Beckman, USA). MHb charged with 2% NaCl was used to test the methicillin activity.
(§3) The antibiotic concentration which hinders a visible growth after 18-24 hours of incubation at 37° C., was registered as MIC.
(§4) S. aureus ATCC 29213 was used as quality control strain.

[2] = system: S. aureus vancomycin-intermediates (VISA) Met-R strains; assay: MIC determination (NCCLS broth microdilution), VISA Met-R strains; assay type: cell-based, Staphylococcus aureus
Method: as §1, §2, §3, §4

[3] = Strain 52 VISA, antibiotype Oxa, Cip, Clin, Ery

## CN[C@H](CC(C)C)C(=O)N[C@H]1C(=O)N[C@@H](CC(N)=O)C(=O)N[C@H]2C(=O)N[C@H]3C(=O)N[C@H](C(=O)N[C@H](C(=O)O)c4cc(O)cc(O)c4-c4cc3ccc4O)[C@H](O)c3ccc(c(Cl)c3)Oc3cc2cc(c3O[C@@H]2O[C@H](CO)[C@@H](O)[C@H](O)[C@H]2O[C@H]2C[C@](C)(N)[C@H](O)[C@H](C)O2)Oc2ccc(cc2Cl)[C@H]1O [Vancomicine, vancomycine]
[1]; S. aureus (50) Met-R
  MIC Range: 0,5-2 mg/l
  % susceptible at breakpoint: 100%
[1]; Staphylococcus aureus
  MIC50: 1 µg/mL (≈ 0.69 µM)
  MIC90: 1 µg/mL (≈ 0.69 µM)
[1]; Staphylococcus aureus, Strain 1, Cip, Clin, Gm
  MIC: 0.5 µg/mL (≈ 0.345 µM)
[1]; Staphylococcus aureus, Strain 2, Clin, Fos
  MIC: 1 µg/mL (≈ 0.69 µM)
[1]; Staphylococcus aureus, Strain 3, Cip, Clin, Gm
  MIC: 1 µg/mL (≈ 0.69 µM)
[1]; Staphylococcus aureus, Strain 4, Cip, Gm
  MIC: 1 µg/mL (≈ 0.69 µM)
[1]; Staphylococcus aureus, Strain 5, Cip, Clin
  MIC: 1 µg/mL (≈ 0.69 µM)
[1]; Staphylococcus aureus, Strain 6, Clin, Gm
  MIC: 1 µg/mL (≈ 0.69 µM)
[1]; Staphylococcus aureus, Strain 7, Cip, Gm
  MIC: 0.5 µg/mL (≈ 0.345 µM)
[1]; Staphylococcus aureus, Strain 8, Cip, Clin
  MIC: 1 µg/mL (≈ 0.69 µM)
[1]; Staphylococcus aureus, Strain 9, Cip, Clin, Gm
  MIC: 1 µg/mL (≈ 0.69 µM)
[1]; Staphylococcus aureus, Strain 10, Cip, Clin, Gm
  MIC: 1 µg/mL (≈ 0.69 µM)
[1]; Staphylococcus aureus, Strain 11, Clin, Rif
  MIC: 1 µg/mL (≈ 0.69 µM)
[1]; Staphylococcus aureus, Strain 12, Cip, Clin
  MIC: 1 µg/mL (≈ 0.69 µM)
[1]; Staphylococcus aureus, Strain 13, Cip, Clin
  MIC: 1 µg/mL (≈ 0.69 µM)
[1]; Staphylococcus aureus, Strain 14, Clin, Cip
  MIC: 1 µg/mL (≈ 0.69 µM)
[1]; Staphylococcus aureus, Strain 15, Cip, Clin, Gm
  MIC: 0.5 µg/mL (≈ 0.345 µM)
[1]; Staphylococcus aureus, Strain 16, Cip, Clin
  MIC: 1 µg/mL (≈ 0.69 µM)
[1]; Staphylococcus aureus, Strain 17, Cip, Clin
  MIC: 0.5 µg/mL (≈ 0.345 µM)
[1]; Staphylococcus aureus, Strain 18, Cip, Clin, Gm
  MIC: 1 µg/mL (≈ 0.69 µM)
[1]; Staphylococcus aureus, Strain 19, Cip, Clin, Gm
  MIC: 1 µg/mL (≈ 0.69 µM)
[1]; Staphylococcus aureus, Strain 20, Cip, Clin, Gm
  MIC: 1 µg/mL (≈ 0.69 µM)
[1]; Staphylococcus aureus, Strain 21, Cip, Clin, Gm
  MIC: 1 µg/mL (≈ 0.69 µM)
[1]; Staphylococcus aureus, Strain 22, Cip, Clin
  MIC: 0.5 µg/mL (≈ 0.345 µM)
[1]; Staphylococcus aureus, Strain 23, Cip, Clin, Gm
  MIC: 1 µg/mL (≈ 0.69 µM)
[1]; Staphylococcus aureus, Strain 24, Cip, Clin, Gm
  MIC: 1 µg/mL (≈ 0.69 µM)
[1]; Staphylococcus aureus, Strain 25, Cip, Clin, Gm
  MIC: 1 µg/mL (≈ 0.69 µM)
[1]; Staphylococcus aureus, Strain 26, Cip, Clin, Fos, Gm
  MIC: 1 µg/mL (≈ 0.69 µM)
[1]; Staphylococcus aureus, Strain 27, Cip, Clin, Fos, Gm
  MIC: 1 µg/mL (≈ 0.69 µM)
[1]; Staphylococcus aureus, Strain 28, Cip, Clin, Gm
  MIC: 1 µg/mL (≈ 0.69 µM)
[1]; Staphylococcus aureus, Strain 29, Clin, Fos
  MIC: 1 µg/mL (≈ 0.69 µM)
[1]; Staphylococcus aureus, Strain 30, Cip, Clin, Gm, SXT, Dox
  MIC: 0.5 µg/mL (≈ 0.345 µM)
[1]; Staphylococcus aureus, Strain 31, Cip, Clin, Fox, Gm
  MIC: 1 µg/mL (≈ 0.69 µM)
[1]; Staphylococcus aureus, Strain 32, Cip, Clin, Gm, SXT, Rif
  MIC: 1 µg/mL (≈ 0.69 µM)
[1]; Staphylococcus aureus, Strain 33, Cip, Clin, Gm
  MIC: 0.5 µg/mL (≈ 0.345 µM)
[1]; Staphylococcus aureus, Strain 34, Cip, Clin, Gm
  MIC: 0.5 µg/mL (≈ 0.345 µM)
[1]; Staphylococcus aureus, Strain 35, Cip, Clin, Gm
  MIC: 1 µg/mL (≈ 0.69 µM)
[1]; Staphylococcus aureus, Strain 36, Cip, Clin, Fos
  MIC: 0.5 µg/mL (≈ 0.345 µM)
[1]; Staphylococcus aureus, Strain 37, Cip, Clin, Fos, Gm
  MIC: 0.5 µg/mL (≈ 0.345 µM)
[1]; Staphylococcus aureus, Strain 38, Cip, Gm
  MIC: 0.5 µg/mL (≈ 0.345 µM)
[1]; Staphylococcus aureus, Strain 39, Cip, Clin, Fos, Gm
  MIC: 0.5 µg/mL (≈ 0.345 µM)
[1]; Staphylococcus aureus, Strain 40, Cip, Clin, Gm
  MIC: 0.5 µg/mL (≈ 0.345 µM)
[1]; Staphylococcus aureus, Strain 41, Cip, Clin
  MIC: 0.5 µg/mL (≈ 0.345 µM)
[1]; Staphylococcus aureus, Strain 42, Cip, Clin, Gm
  MIC: 0.5 µg/mL (≈ 0.345 µM)
[1]; Staphylococcus aureus, Strain 43, Cip, Clin, Gm
  MIC: 0.5 µg/mL (≈ 0.345 µM)
[1]; Staphylococcus aureus, Strain 44, Cip, Clin, Gm, Rif, Dox
  MIC: 1 µg/mL (≈ 0.69 µM)
[1]; Staphylococcus aureus, Strain 45, Cip, Clin, Gm, Rif, Dox, Fos
  MIC: 1 µg/mL (≈ 0.69 µM)
[1]; Staphylococcus aureus, Strain 46, Clin, Fos
  MIC: 0.5 µg/mL (≈ 0.345 µM)
[1]; Staphylococcus aureus, Strain 47, Cip, Clin, Gm
  MIC: 0.5 µg/mL (≈ 0.345 µM)
[1]; Staphylococcus aureus, Strain 48, Cip, Clin
  MIC: 2 µg/mL (≈ 1.38 µM)
[1]; Staphylococcus aureus, Strain 49, Cip, Gm
  MIC: 1 µg/mL (≈ 0.69 µM)
[1]; Staphylococcus aureus, Strain 50, Cip, Clin, Gm, Rif, Dox
  MIC: 1 µg/mL (≈ 0.69 µM)
[2]; Staphylococcus aureus, VISA
  MIC: 8 µg/mL (≈ 5.52 µM)
[2]; [3]
  MIC: 8 µg/mL (≈ 5.52 µM)
[2]; VISA (2) Met-R
  MIC Range: 8 µg/mL (≈ 5.52 µM)

## teicoplanine
[1]; S. aureus (50) Met-R
  MIC 50%: 0,5 mg/l
  MIC 90%: 1 µg/mL
  MIC Range: 0,12-2 mg/l
  % susceptible at breakpoint: 100%
[1]; Strain 1, Cip, Clin, Gm
  MIC: 0.25 µg/mL
[1]; Strain 2, Clin, Fos
  MIC: 0.5 µg/mL
[1]; Strain 3, Cip, Clin, Gm
  MIC: 1 µg/mL
[1]; Strain 4, Cip, Gm
  MIC: 0.5 µg/mL
[1]; Strain 5, Cip, Clin
  MIC: 1 µg/mL
[1]; Strain 6, Clin, Gm
  MIC: 1 µg/mL
[1]; Strain 7, Cip, Gm
  MIC: 0.25 µg/mL
[1]; Strain 8, Cip, Clin
  MIC: 0.25 µg/mL
[1]; Strain 9, Cip, Clin, Gm
  MIC: 0.25 µg/mL
[1]; Strain 10, Cip, Clin, Gm
  MIC: 0.25 µg/mL
[1]; Strain 11, Clin, Rif
  MIC: 1 µg/mL
[1]; Strain 12, Cip, Clin
  MIC: 1 µg/mL
[1]; Strain 13, Cip, Clin
  MIC: 1 µg/mL
[1]; Strain 14, Clin, Cip
  MIC: 0.5 µg/mL
[1]; Strain 15, Cip, Clin, Gm
  MIC: 0.25 µg/mL
[1]; Strain 16, Cip, Clin
  MIC: 1 µg/mL
[1]; Strain 17, Cip, Clin
  MIC: 0.25 µg/mL
[1]; Strain 18, Cip, Clin, Gm
  MIC: 1 µg/mL
[1]; Strain 19, Cip, Clin, Gm
  MIC: 1 µg/mL
[1]; Strain 20, Cip, Clin, Gm
  MIC: 0.25 µg/mL
[1]; Strain 21, Cip, Clin, Gm
  MIC: 0.5 µg/mL
[1]; Strain 22, Cip, Clin
  MIC: 0.25 µg/mL
[1]; Strain 23, Cip, Clin, Gm
  MIC: 0.5 µg/mL
[1]; Strain 24, Cip, Clin, Gm
  MIC: 0.5 µg/mL
[1]; Strain 25, Cip, Clin, Gm
  MIC: 1 µg/mL
[1]; Strain 26, Cip, Clin, Fos, Gm
  MIC: 1 µg/mL
[1]; Strain 27, Cip, Clin, Fos, Gm
  MIC: 1 µg/mL
[1]; Strain 28, Cip, Clin, Gm
  MIC: 0.5 µg/mL
[1]; Strain 29, Clin, Fos
  MIC: 0.5 µg/mL
[1]; Strain 30, Cip, Clin, Gm, SXT, Dox
  MIC: 1 µg/mL
[1]; Strain 31, Cip, Clin, Fox, Gm
  MIC: 0.5 µg/mL
[1]; Strain 32, Cip, Clin, Gm, SXT, Rif
  MIC: 0.5 µg/mL
[1]; Strain 33, Cip, Clin, Gm
  MIC: 0.5 µg/mL
[1]; Strain 34, Cip, Clin, Gm
  MIC: 0.25 µg/mL
[1]; Strain 35, Cip, Clin, Gm
  MIC: 0.5 µg/mL
[1]; Strain 36, Cip, Clin, Fos
  MIC: 1 µg/mL
[1]; Strain 37, Cip, Clin, Fos, Gm
  MIC: 0.25 µg/mL
[1]; Strain 38, Cip, Gm
  MIC: 0.25 µg/mL
[1]; Strain 39, Cip, Clin, Fos, Gm
  MIC: 0.25 µg/mL
[1]; Strain 40, Cip, Clin, Gm
  MIC: 0.25 µg/mL
[1]; Strain 41, Cip, Clin
  MIC: 0.25 µg/mL
[1]; Strain 42, Cip, Clin, Gm
  MIC: 0.12 µg/mL
[1]; Strain 43, Cip, Clin, Gm
  MIC: 0.5 µg/mL
[1]; Strain 44, Cip, Clin, Gm, Rif, Dox
  MIC: 1 µg/mL
[1]; Strain 45, Cip, Clin, Gm, Rif, Dox, Fos
  MIC: 0.5 µg/mL
[1]; Strain 46, Clin, Fos
  MIC: 0.25 µg/mL
[1]; Strain 47, Cip, Clin, Gm
  MIC: 0.12 µg/mL
[1]; Strain 48, Cip, Clin
  MIC: 2 µg/mL
[1]; Strain 49, Cip, Gm
  MIC: 0.5 µg/mL
[1]; Strain 50, Cip, Clin, Gm, Rif, Dox
  MIC: 0.5 µg/mL
[2]; Strain 51 VISA, antibiotype Oxa, Cip, Clin, Ery
  MIC: 8 µg/mL
[2]; [3]
  MIC: 8 µg/mL
[2]; VISA (2) Met-R
  MIC Range: 8 µg/mL
[2]; VISA (2) Met-R, NCCLS (1999) breakpoints
  % susceptible at breakpoint: 100%
